Measurements: paper PMC10480161, “Identification of potent and selective N-myristoyltransferase inhibitors of Plasmodium vivax liver stage hypnozoites and schizonts” (Nature Communications, 2023)
Several values for one entry are separate records, joined by “and”; a condition that tells them apart may be missing. Equal entries are not always repeated.

Tests used:
PvNMT = PvNMT (Plasmodium vivax, UniProt A5K1A2); experiment: NMT activity assay (CPM detection of free CoA), PvNMT; settings: for IC50: PvNMT IC50, mean of two or more determinations; for SI: enzyme selectivity, HsNMT IC50/PvNMT IC50
PvNMT, sequence (A5K1A2 entry or part of it): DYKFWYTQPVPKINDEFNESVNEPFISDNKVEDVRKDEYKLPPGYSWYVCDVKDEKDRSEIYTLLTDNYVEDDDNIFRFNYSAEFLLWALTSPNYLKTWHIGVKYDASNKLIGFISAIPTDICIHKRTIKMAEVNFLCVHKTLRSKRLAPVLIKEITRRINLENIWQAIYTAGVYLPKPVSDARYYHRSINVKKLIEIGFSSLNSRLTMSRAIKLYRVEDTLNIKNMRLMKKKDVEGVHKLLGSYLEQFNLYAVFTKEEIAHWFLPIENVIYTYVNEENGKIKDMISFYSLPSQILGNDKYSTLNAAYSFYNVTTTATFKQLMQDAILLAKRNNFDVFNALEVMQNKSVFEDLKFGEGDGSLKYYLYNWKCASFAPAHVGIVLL

P. vivax schizonts = experiment: P. vivax liver stage assay, schizonts; assay type: cell-based, Plasmodium vivax; settings: for Number of liverstage Schizonts per well: 20 µM, 8 dpi; for IC50: Plasmodium vivax, Hepatocyte, 120 h, primary human hepatocytes, treatment day 5 to 8 post-infection, isolates 2 and 3
Outline: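 Compound exposure ran days 5–8 post-infection with daily refeeding, dose-response up to 20 µM, MMV390048 at 20 µM as positive control. Host cells were single-lot primary human hepatocytes infected with freshly dissected P. vivax sporozoites; fixed cultures stained with anti-PvUIS4 and DAPI, schizonts quantified by confocal microscopy.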

[1] = system: primary human hepatocytes; experiment: Nuclear counts (DAPI) in P. vivax-infected primary hepatocytes as measure of toxicity; assay type: cell-based; settings: two technical replicates
Outline: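 Toxicity readout: DAPI nuclear counts normalized to DMSO wells, from confocal images of fixed P. vivax-infected single-donor primary human hepatocytes. Compounds, up to 20 µM, were applied daily from day 5 until day 8 post-infection; two technical replicates.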

HsNMT1 = target: T1, HsNMT1 (Homo sapiens, UniProt P30419); experiment: NMT activity assay (CPM detection of free CoA), HsNMT
T1 sequence (P30419 1-496): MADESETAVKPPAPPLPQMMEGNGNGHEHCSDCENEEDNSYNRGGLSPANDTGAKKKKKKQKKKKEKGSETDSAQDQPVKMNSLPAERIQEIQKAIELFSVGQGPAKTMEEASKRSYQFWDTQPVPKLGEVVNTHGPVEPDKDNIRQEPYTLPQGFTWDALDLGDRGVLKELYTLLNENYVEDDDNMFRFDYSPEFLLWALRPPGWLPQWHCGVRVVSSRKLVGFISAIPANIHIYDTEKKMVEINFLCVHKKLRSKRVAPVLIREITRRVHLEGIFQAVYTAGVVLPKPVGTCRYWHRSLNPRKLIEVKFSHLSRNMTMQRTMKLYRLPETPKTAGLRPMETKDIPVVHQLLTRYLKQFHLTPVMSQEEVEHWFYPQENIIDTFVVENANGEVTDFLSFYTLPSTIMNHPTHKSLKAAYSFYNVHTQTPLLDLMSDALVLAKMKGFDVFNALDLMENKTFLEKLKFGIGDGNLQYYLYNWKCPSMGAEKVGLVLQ

P. vivax hypnozoites = experiment: P. vivax liver stage assay, hypnozoites; assay type: cell-based, Plasmodium vivax; settings: for Hypnozoites per well: Isolate 2, replicate wells (Figure 6d); for Number of liverstage hypnozoites per well: 20 µM, 8 dpi; for IC50: Plasmodium vivax, Hepatocyte, 120 h, primary human hepatocytes, treatment day 5 to 8 post-infection, isolate 2
Outline: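 Hypnozoite read-out by confocal imaging of PvUIS4/DAPI-stained cultures at day 8 post-infection. Compound was replaced daily starting day 5 in P. vivax-infected single-donor primary human hepatocytes. Positive control: Pi4K inhibitor MMV390048, 20 µM.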

[2] = isolate 1, technical replicates (Fig. 5b)
[3] = isolate 2, technical replicates (Fig. 5b)
[4] = isolate 3, technical replicates (Fig. 5b)
[5] = isolate 1, technical replicates (Fig. 6C)
[6] = isolate 2, technical replicates (Fig. 6C)
[7] = isolate 3, technical replicates (Fig. 6C)

SMILES | IC50 (PvNMT) | SI (PvNMT) | Number of liverstage Schizonts per well (P. vivax schizonts; [2]) | Number of liverstage Schizonts per well (P. vivax schizonts; [3]) | Number of liverstage Schizonts per well (P. vivax schizonts; [4]) | Schizonts per well (P. vivax schizonts; Isolate 2, 1.25 uM) | Schizonts per well (P. vivax schizonts; Isolate 2, 2.5 uM) | Schizonts per well (P. vivax schizonts; Isolate 2, 5 uM) | Schizonts per well (P. vivax schizonts; Isolate 2, 10 uM) | Schizonts per well (P. vivax schizonts; Isolate 3, 1.25 uM) | Schizonts per well (P. vivax schizonts; Isolate 3, 2.5 uM) | Schizonts per well (P. vivax schizonts; Isolate 3, 5 uM) | Schizonts per well (P. vivax schizonts; Isolate 3, 10 uM) | IC50 (P. vivax schizonts) | schizonts (fold change to DMSO) mean diff (P. vivax schizonts; isolate 1, 20 µM) | schizonts (fold change to DMSO) mean diff (P. vivax schizonts; isolate 2, 20 µM) | schizonts (fold change to DMSO) mean diff (P. vivax schizonts; isolate 3, 20 µM) | Nucleus counts per well ([1]; 1 uM) | Nucleus counts per well ([1]; 2.5uM) | Nucleus counts per well ([1]; 5 uM) | other results
Cc1nn(C)c(C)c1CCOc1ccccc1-c1cccc(OCCN(C)C)c1 [Compound 26b] | 0.0832 µM | 118.4 | 0 per well (2×) and 5 per well | 3 per well and 4 per well and 0 per well | 3 per well and 8 per well | 12 per well and 19 per well and 15 per well | 9 per well and 7 per well and 12 per well | 10 per well and 8 per well and 6 per well | 7 per well and 4 per well and 5 per well | 11 per well and 13 per well | 9 per well and 12 per well | 8 per well and 12 per well | 6 per well and 11 per well | 3.1 to 4.1 µM | 0.917 | 0.8679 | 0.625 | 14910 per well and 16840 per well | 13670 per well and 14610 per well | 13920 per well and 13020 per well | Nucleus counts per well ([1]; 10uM): 12600 per well and 13580 per well; Nucleus counts per well ([1]; 20uM, P. vivax-infected wells): 11600 per well and 12490 per well; IC50 (HsNMT1): 9.85 µM; Hypnozoites per well (P. vivax hypnozoites; 1.25 uM): 10 and 6 and 12; Hypnozoites per well (P. vivax hypnozoites; 2.5 uM): 4 and 8 and 7; Hypnozoites per well (P. vivax hypnozoites; 5 uM): 7 and 5 and 9; Hypnozoites per well (P. vivax hypnozoites; 10 uM): 4 (2×) and 0; Number of liverstage hypnozoites per well (P. vivax hypnozoites; [5]): 1 per well (2×) and 2 per well; Number of liverstage hypnozoites per well (P. vivax hypnozoites; [6]): 3 per well and 1 per well and 2 per well; Number of liverstage hypnozoites per well (P. vivax hypnozoites; [7]): 0 per well; Hypnozoites per well (P. vivax hypnozoites; 20 uM): 3 and 1 and 2; IC50 (P. vivax hypnozoites): 4.6 µM; hypnozoites (fold change to DMSO) mean diff (P. vivax hypnozoites; isolate 1, 20 µM): 0.908; hypnozoites (fold change to DMSO) mean diff (P. vivax hypnozoites; isolate 2, 20 µM): 0.793
Cc1nn(C)c(C)c1CCOc1cc(F)ccc1-c1cccc(OCCN(C)C)c1 [Compound 26c] | 0.0294 µM | 162.3 | 0 per well | 3 per well and 0 per well (2×) | 2 per well and 1 per well | 14 per well and 13 per well and 12 per well | 10 per well and 15 per well and 13 per well | 7 per well and 12 per well and 8 per well | 5 per well and 3 per well and 6 per well | 11 per well and 9 per well | 6 per well and 10 per well | 7 per well and 5 per well | 4 per well and 2 per well | 2.8 to 4.2 µM | 1.000 | 0.9434 | 0.8977 | 16190 per well and 15050 per well | 15160 per well and 15950 per well | 16180 per well and 14300 per well | Schizonts per well (P. vivax schizonts; Isolate 3, 20 uM (Fig. 5c-d)): 2 per well and 1 per well; Nucleus counts per well ([1]; 10uM): 14610 per well and 15250 per well; Nucleus counts per well ([1]; 20uM, P. vivax-infected wells): 12520 per well and 13160 per well; IC50 (HsNMT1): 4.79 µM; Hypnozoites per well (P. vivax hypnozoites; 1.25 uM): 7 and 11 and 8; Hypnozoites per well (P. vivax hypnozoites; 2.5 uM): 6 and 5 and 7; Hypnozoites per well (P. vivax hypnozoites; 5 uM): 6 (2×) and 3; Hypnozoites per well (P. vivax hypnozoites; 10 uM): 3 and 2 and 7; Number of liverstage hypnozoites per well (P. vivax hypnozoites; [5]): 4 per well and 0 per well (2×); Number of liverstage hypnozoites per well (P. vivax hypnozoites; [6]): 4 per well and 0 per well (2×); Number of liverstage hypnozoites per well (P. vivax hypnozoites; [7]): 0 per well (2×) and 1 per well; Hypnozoites per well (P. vivax hypnozoites; 20 uM): 4 and 0 (2×); IC50 (P. vivax hypnozoites): 4.2 µM; hypnozoites (fold change to DMSO) mean diff (P. vivax hypnozoites; isolate 1, 20 µM): 0.923; hypnozoites (fold change to DMSO) mean diff (P. vivax hypnozoites; isolate 2, 20 µM): 0.862
